Experimental data as given in paper PMC8845285, “Serotoninergic receptor ligands improve Tamoxifen effectiveness on breast cancer cells” (BMC Cancer, 2022).
Read-outs that look alike come from different tables or passages of the source.

Legend:
[1] = test system: MCF7 cells; assay: MCF7 cell viability, sulforhodamine B assay; assay type: cell-based, human; details: for IC50: Homo sapiens, MCF7
Description: MCF7 (ER^+, PR^+, HER2^−), SKBR3 (ER^−, PR^+, HER2^+) and MDA-MB231 (ER^−, PR^−, HER2^−) human BC cells and MCF10A non-cancer breast epithelial cells were available in our laboratory. MCF7, SKBR3 and MDA-MB231 cells were cultured in DMEM, supplemented with 10% FBS, 2 mM glutamine, 100 units/ml penicillin and 100 units/ml streptomycin. MCF10A cells were cultured in MEBM, supplemented with 0.4% BPE, 0.1% hEGF, 0.1%, Insulin, 0.1% Hydrocortisone and 0.1% GA-1000. […] Treatment with SER were carried out in culture conditions. Treatment with Tamoxifen and/or SER were carried out upon 48 h estrogen starvation in phenol-red free medium supplemented with 10% Charcoal Stripped (C/S) FBS, 2 mM glutamine, 100 units/ml penicillin and 100 units/ml streptomycin.
Cells were fixed with 50% trichloroacetic acid for at least 2 h at 4 °C, washed with distilled and de-ionized water, air-dryed and stained 30 min with 0.4% sulforhodamine B in 1% acetic acid. Unbound dye was removed and 10 mM tris-HCl solution (pH 7.5) was added to dissolve the protein-bound dye. Cell survival was assessed by optical density determination at 510 nm using a microplate reader.
After 48 and 72 h, cell viability was assessed by sulforhodamine B assay (see Methods).

[2] = test system: CTGF; assay: CTGF mRNA levels in MCF7 cells, qPCR; assay type: cell-based, human; details: E2 100 nM, 72 h, estrogen-starved MCF7; for CTGF mRNA levels lower compared with untreated cells: SER at IC50 dose
Description: Total RNA was isolated from cells, quantified (NanoDrop spectrophotometer, Life Technologies, Carlsbad, CA, USA) and reverse transcribed according to the manufacturer’s instructions. Semiquantitative PCR and qPCR assays were performed according to manufacturer’s instructions for Bio-Rad T100 thermal cycler and CFX Connect Real Time system (Biorad, Hercules, CA, USA), respectively. Relative gene expression quantification was measured by 2^−ΔΔCt method normalizing for the reference sample using Rps23 (Ribosomal Protein S23) as housekeeping gene.
After 72 h, cell cycle was assessed by Propidium Iodide staining (see Methods). […] As positive control, the cells were treated with E2 and SER alone (without Tamoxifen, dotted line). After 72 h, cell viability was assessed by sulforhodamine B assay (see Methods). […] After 72 h, mRNA levels of CTGF were determined by qPCR (see Methods and Table 1). Data were normalized on Ribosomal Protein S23 (Rps23) gene as internal standard and were reported as CTGF mRNA levels in MCF7 treated with SER relative to those in untreated cells (dotted line). a-c Data represent the mean ± SD of at least three independent triplicate experiments. * denotes statistically significant values compared with (a) percentage of untreated cells in G0/G1, S and G2/M cell cycle phase (*pval<0.05,**pval<0.01), (b) positive control (*adjp<0.05,**adjp <0.01,***adjp<0.001), (c) untreated cells (pval<0.05); # denotes statistically significant values compared with cells treated with Tamoxifen in absence of SER (#pval<0.05)
Fig. 7 Effect of low doses of SER79 and SER68 on MCF7 and MCF10A cells. a Estrogen-starved MCF7 cells (48 h) were treated with Tamoxifen (5 μM) in presence of E2 (100nM) and SER79 (5 μM) or SER68 (20 μM, 5 μM). As positive control, the cells were treated with E2 and SER alone (without Tamoxifen, dotted line). After 72 h, cell viability was assessed by sulforhodamine B assay (see Methods). […] After 72 h, mRNA levels of CTGF were determined by qPCR (see Methods and Table 1). Data were normalized on Ribosomal Protein S23 (Rps23) gene as internal standard. Bars represent CTGF mRNA levels in MCF7 treated with SER relative to those in untreated cells (dotted line). c MCF10A non-cancer breast epithelial cells were treated with SER79 (5 μM) or SER68 (20 μM). After 72 h, cell viability was assessed by sulforhodamine B assay (see Methods).

[3] = target: T1, serotonin 5-HT2C receptor (Rattus norvegicus, UniProt P08909); assay: radioligand binding assay, 5-HT2C, [3H]mesulergine; details: rat brain cortex; read-out: Ki ± SD, 5-HT2C [3H]Mesulergine
T1 construct: serotonin 5-HT2C receptor, [^3H]mesulergine, rat brain cortex; from tissue; host or cells: rat brain cortex
T1 sequence (P08909 33-460): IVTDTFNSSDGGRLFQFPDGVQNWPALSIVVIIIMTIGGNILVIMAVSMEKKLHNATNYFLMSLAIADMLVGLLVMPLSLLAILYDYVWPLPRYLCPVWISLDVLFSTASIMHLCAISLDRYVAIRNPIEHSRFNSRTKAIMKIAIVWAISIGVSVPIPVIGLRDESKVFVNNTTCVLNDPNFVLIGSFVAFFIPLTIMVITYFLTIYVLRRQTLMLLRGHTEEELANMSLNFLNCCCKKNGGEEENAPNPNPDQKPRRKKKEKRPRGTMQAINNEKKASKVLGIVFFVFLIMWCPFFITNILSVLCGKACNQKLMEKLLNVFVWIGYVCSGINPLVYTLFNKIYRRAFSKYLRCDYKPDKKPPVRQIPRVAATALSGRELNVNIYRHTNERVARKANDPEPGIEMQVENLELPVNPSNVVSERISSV
Description: All reactions were monitored by TLC, carried out on Merck 60G F254 plates with fluorescent indicator and the plates were visualized with UV light (254 nm). Each final compound and intermediate was purified by silica gel column chromatography (Macherey-Nagel 60 0,063–0,2 mm/70–230 mesh). […] Unless otherwise stated, all spectra were recorded in CDCl3. Chemical shifts are reported in ppm using Me4Si as internal standard. The following abbreviations are used to describe peak patterns when appropriate: s (singlet), d (doublet), t (triplet), m (multiplet), q (quartet), qt (quintet), dd (double doublet), ddd (double dd), bs (broad singlet). Mass spectra of the final products were performed on LTQ Orbitrap XL™ Fourier transform mass spectrometer (FTMS) equipped with ESI ION MAX™ source (Thermo Fisher, San José, USA). Melting points were determined using a Buchi B-540 hot-stage instrument and are uncorrected. […] All the compounds were dissolved in 5% DMSO. The following specific radioligands and tissue sources were used: (a)serotonin 5-HT1A receptor, [^3H]-8-OH-DPAT, rat brain cortex; (b) serotonin 5-HT2A receptor, [^3H]ketanserin, rat brain cortex; (c)serotonin 5-HT2C receptor, [^3H]mesulergine, rat brain cortex. Non-specific binding was determined as described in the experimental section, and specific binding as the difference between total and non-specific binding. […] The IC50 values obtained were used to calculate apparent inhibition constants (Ki) by the method of Cheng and Prussoff, from the following equation: Ki = IC50/(1 + S/KD) where S represents the concentration of the hot ligand used and KD its receptor dissociation constant (KD values, obtained by Scatchard analysis, were calculated for each labeled ligand). Radioligand binding assays for 5-HT1A were performed following a published procedure. 5-HT2A and 5-HT2C binding assays were performed reported by Herndon et al..

[4] = 48 h treatment, read-out: IC50 MCF7 48h
[5] = 72 h treatment, read-out: IC50 MCF7

Structure (SMILES) | IC50 [1, 4] [µM] | IC50 [1, 5] [µM] | reduction of CTGF expression ([2]; SER 20 μM) | CTGF mRNA levels lower compared with untreated cells [2] | Ki [3] [µM] | reduction of MCF7 cell viability ([1]; 50 μM, 72 h) | reduction of CTGF expression ([2]; SER 5 μM)
O=C1C2C3C=CC(C3)C2C(=O)N1OCCN1CCN(c2ccc(Cl)c(Cl)c2)CC1 (centres unmarked) [SER68] | 131 ± 13.8 | 54.2 ± 10.2 | ≈ 50% | ≈ 80% | 0.00113 ± 0.00016 |  | 
N#CN=C(NCCCN1CCN(C(c2ccc(F)cc2)c2ccc(F)cc2)CC1)c1ccccn1 [SER79] | 85.1 ± 13.4 | 24.1 |  | ≈ 60% | 0.0214 ± 0.00122 | ≈ 70% | ≈ 30%
